Laboratory results published in US20050014849A1, “Antifungal phenylethylene” (priority 2001, published 2005).

How the values were obtained:
bovine brain tubulin [1] = test system: T1, bovine brain tubulin; assay: Tubulin polymerization assay; assay type: biochemical; settings: 1 mg/ml tubulin; 20 min incubation at 30° C.
T1 construct: Electrophoretically homogeneous bovine brain tubulin [12]
Procedure: (§1) Electrophoretically homogeneous bovine brain tubulin [12] was used in studies to evaluate the effects of TMPN on in vitro tubulin polymerization and the binding of […] (Dupont-NEN) to tubulin. These studies were performed as described previously. In the polymerization assay, varying drug concentrations were added to 1 mg/ml tubulin to determine the amount of drug that would inhibit the extent of the reaction by 50% (20 min incubation at 30° C.) (IC50 value). In the colchicine binding assay, the effect of varying drug concentrations on the binding of 2 μg/ml colchicine to 100 μg/ml tubulin was measured after 10 min at 37° C. (control reaction about 50% complete).

bovine brain tubulin [2] = test system: T1, bovine brain tubulin; assay: Colchicine binding assay; settings: 5 μM (combretastatin A-4 1.6 μg/ml; TMPN 1.2 μg/ml); 10 min at 37° C.
Procedure: as §1

Q: Which results are given for COc1ccc(/C=C\c2cc(OC)c(OC)c(OC)c2)cc1O [combretastatin A-4, reference compound]?
A: IC50 for inhibition of the extent of tubulin assembly (bovine brain tubulin [1]): 0.32 ± 0.02 µg/mL; inhibition of [^3H]colchicine binding to tubulin (bovine brain tubulin [2]): 98+1%
